In PubChem BioAssay AID248 (DTP/NCI, 2004):
Values joined by “and” are separate entries in the source; they are usually repeats but may differ in a detail not shown here. Equal entries are not always repeated. Inconclusive results and toxic doses are left out. No stated cut-off is given here; in the data, active means T/C of 150% or more; inactive means T/C below 125%.

System: L1210 leukemia ip in BDF1 mice, survival T/C
Assay: NCI In Vivo Anticancer Drug Screen. Data for tumor model L1210 Leukemia (intraperitoneal) in B6D2F1 (BDF1) mice
Details: endpoint: mean survival time, higher = longer survival
How it was run: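 Transplantable tumor model; survival measured in treated vs vehicle control mice. Value = treated/control.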

[1] = dose: 100.0 mg/kg/injection, schedule: Q04DX002 (ip), vehicle: Klucel (hydroxypropylcellulose) (HPC)
[2] = dose: 200.0 mg/kg/injection, schedule: Q04DX002 (ip), vehicle: Klucel (hydroxypropylcellulose) (HPC)
[3] = dose: 100.0 mg/kg/injection, schedule: Q01DX009 (ip), vehicle: Klucel (hydroxypropylcellulose) (HPC)
[4] = dose: 200.0 mg/kg/injection, schedule: Q01DX009 (ip), vehicle: Klucel (hydroxypropylcellulose) (HPC)
[5] = dose: 400.0 mg/kg/injection, schedule: Q01DX009 (ip), vehicle: Klucel (hydroxypropylcellulose) (HPC)
[6] = dose: 100.0 mg/kg/injection, schedule: Q01DX001 (ip), vehicle: saline
[7] = dose: 200.0 mg/kg/injection, schedule: Q01DX001 (ip), vehicle: saline
[8] = dose: 400.0 mg/kg/injection, schedule: Q01DX001 (ip), vehicle: saline
[9] = dose: 100.0 mg/kg/injection, schedule: Q01DX009 (ip), vehicle: saline
[10] = dose: 200.0 mg/kg/injection, schedule: Q01DX009 (ip), vehicle: saline

Measured: T/C

CC(=O)N(C)C
inactive: dose: 62.5 mg/kg/injection, schedule: Q01DX010 (ip), vehicle: saline 94 % of control and 97 % of control | dose: 125.0 mg/kg/injection, schedule: Q01DX010 (ip), vehicle: saline 105 % of control and 91 % of control | dose: 250.0 mg/kg/injection, schedule: Q01DX010 (ip), vehicle: saline 103 % of control and 91 % of control | dose: 500.0 mg/kg/injection, schedule: Q01DX001 (ip), vehicle: saline 101 % of control | dose: 500.0 mg/kg/injection, schedule: Q01DX010 (ip), vehicle: saline 100 % of control and 89 % of control | dose: 900.0 mg/kg/injection, schedule: Q01DX Z (ip), vehicle: other 106 % of control | dose: 1000.0 mg/kg/injection, schedule: Q01DX001 (ip), vehicle: saline 100 % of control | dose: 2000.0 mg/kg/injection, schedule: Q01DX001 (ip), vehicle: saline 97 % of control | dose: 3000.0 mg/kg/injection, schedule: Q01DX Z (ip), vehicle: other 87 % of control

Cc1ccc([N+](=O)[O-])c(P(=O)(O)O)c1
inactive: dose: 100.0 mg/kg/injection, schedule: Q04DX003 (ip), vehicle: saline with Tween-80 100 % of control

CCCCCCCCCCC(OO)C(=O)OC(C)(C)C (configuration not stated)
inactive: [1] 95 % of control | [2] 91 % of control | dose: 400.0 mg/kg/injection, schedule: Q04DX002 (ip), vehicle: Klucel (hydroxypropylcellulose) (HPC) 91 % of control

CCc1ccccc1NC(=O)Nc1ccccc1OC
inactive: [3] 92 % of control | dose: 100.0 mg/kg/injection, schedule: Q04DX003 (ip), vehicle: Klucel (hydroxypropylcellulose) (HPC) 93 % of control | [4] 94 % of control | dose: 200.0 mg/kg/injection, schedule: Q04DX003 (ip), vehicle: Klucel (hydroxypropylcellulose) (HPC) 93 % of control | [5] 100 % of control | dose: 400.0 mg/kg/injection, schedule: Q04DX003 (ip), vehicle: Klucel (hydroxypropylcellulose) (HPC) 90 % of control

O=C1Nc2cccc3cc(NCC(O)CCCl)cc1c23 (configuration not stated)
inactive: [6] 90 % of control | [7] 89 % of control | [8] 100 % of control

O=C(O)/C=C(\F)C(=O)O
inactive: dose: 50.0 mg/kg/injection, schedule: Q01DX005 (ip), vehicle: water 109 % of control and 91 % of control | dose: 100.0 mg/kg/injection, schedule: Q01DX005 (ip), vehicle: water 96 % of control and 98 % of control | dose: 200.0 mg/kg/injection, schedule: Q01DX005 (ip), vehicle: water 107 % of control and 105 % of control

O=C(O)COc1cc(F)c([N+](=O)[O-])cc1[N+](=O)[O-]
inactive: [1] 90 % of control | [2] 97 % of control

O=[N+]([O-])c1cccc(S(=O)(=O)Nc2cccc(C(F)(F)F)c2)c1
inactive: [9] 96 % of control | [10] 104 % of control | dose: 400.0 mg/kg/injection, schedule: Q01DX009 (ip), vehicle: saline 96 % of control

CCCCN1C(=O)NC(=O)C1c1ccsc1 (configuration not stated)
inactive: dose: 100.0 mg/kg/injection, schedule: Q01DX001 (ip), vehicle: carboxymethylcellulose (CMC) 103 % of control | dose: 200.0 mg/kg/injection, schedule: Q01DX001 (ip), vehicle: carboxymethylcellulose (CMC) 94 % of control | dose: 400.0 mg/kg/injection, schedule: Q01DX001 (ip), vehicle: carboxymethylcellulose (CMC) 100 % of control

Cn1cnc2c1c(=O)[nH]c(=O)n2C
inactive: [3] 93 % of control | [9] 95 % of control | [4] 86 % of control | [10] 92 % of control | [5] 89 % of control

CCC(Br)(CC)C(=O)c1ccc(OCC(=O)O)c(Cl)c1Cl
inactive: dose: 50.0 mg/kg/injection, schedule: Q01DX001 (ip), vehicle: saline 104 % of control | [6] 96 % of control | [7] 102 % of control

O=c1/c(=C\c2ccccc2Cl)sc2n1CCN=2
inactive: [6] 100 % of control | [7] 105 % of control | [8] 105 % of control

Cc1cc(CC(C)C)c(C(N)=O)cc1C
inactive: dose: 100.0 mg/kg/injection, schedule: Q01DX001 (ip), vehicle: other 108 % of control | dose: 200.0 mg/kg/injection, schedule: Q01DX001 (ip), vehicle: other 105 % of control | dose: 400.0 mg/kg/injection, schedule: Q01DX001 (ip), vehicle: other 103 % of control
